Structures are written as SMILES.

On to `*C#Cc1cccc(C#C[SiH](*)c2ccccc2)c1` (repeat unit), for which the glass transition temperature is 85.00 °C.
For `*CC(*)c1ccc(C(O)CCN2CCCCC2)cc1` (repeat unit) the value was 54.00 °C; for `*CC(*)c1ccc(CCC)cc1` (repeat unit), 46.8 °C.
To `*CC(*)c1ccc(CCCCCC)cc1` (repeat unit) belongs -27.00 °C.
`*CC(*)c1ccc(CCCCCCCC)cc1` (repeat unit) yielded a glass transition temperature of -45.00 °C.
To `*CC(*)c1ccc(CCCCCCCCC)cc1` (repeat unit) belongs -53.00 °C; to `*CC(*)c1ccc(CCl)cc1` (repeat unit), 113.50 °C; to `*CC(*)c1ccc(COCCC(F)(F)C(F)(F)C(F)(F)C(F)(F)F)cc1` (repeat unit), 13.00 °C.
Consider `*CC(*)c1ccc(COCCCC)cc1` (repeat unit), for which the glass transition temperature worked out at 10.00 °C.
Take `*CC(*)c1ccc(COCCCCCC)cc1` (repeat unit): the glass transition temperature was -20.00 °C.
`*CC(*)c1ccc(COCCO)cc1` (repeat unit) returned a glass transition temperature of 46.00 °C.
For `*CC(*)c1ccc(COCCOCCCC)cc1` (repeat unit) the value was -38.00 °C; for `*CC(*)c1ccc(COCCOCCCCCCCC)cc1` (repeat unit), -42.00 °C.
For `*CC(*)c1ccc(COc2ccc(-c3ccc(-c4ccc(-c5ccc(CCCCCC)s5)s4)c4nsnc34)cc2)cc1` (repeat unit) the value was 122.00 °C; for `*CC(*)c1ccc(C[Si](C)(C)C)cc1` (repeat unit), 82.00 °C.
The compound `*CC(*)c1ccc(Cl)c([N+](=O)[O-])c1` (repeat unit) showed a glass transition temperature of 132.90 °C.
The compound `*CC(*)c1ccc(I)cc1` (repeat unit) had a glass transition temperature of 158.00 °C.
On to `*CC(*)c1ccc(OCC)cc1` (repeat unit), for which the glass transition temperature stood at 86.00 °C.
Consider `*CC(*)c1ccc(OCCOCCOC(C)=O)cc1` (repeat unit), for which the glass transition temperature was -3.00 °C.
For `*CC(*)c1ccc(Oc2ccccc2)cc1` (repeat unit) the value was 85.00 °C; for `*CC(*)c1ccc(S(=O)(=O)OCCC)cc1` (repeat unit), 217.00 °C; for `*CC(*)c1ccc([SiH](C)C)cc1` (repeat unit), 105.00 °C.
Regarding `*CC(*)c1ccc2c(c1)OCO2` (repeat unit), the glass transition temperature was 138.00 °C.
For `*CC(*)c1ccc2ccccc2c1` (repeat unit) the value was 146.50 °C.
To `*CC(*)c1cccc(C)n1` (repeat unit) belongs 92.00 °C; to `*CC(*)c1cccc(N(c2ccc(C)cc2)c2ccc(C)cc2)c1` (repeat unit), 126.50 °C.
For `*CC(*)c1cccc(O)c1` (repeat unit) the value was 169.00 °C; for `*CC(*)c1cccc2ccccc12` (repeat unit), 160.00 °C; for `*CC(*)c1ccccc1C(=O)N(C)C` (repeat unit), 190.00 °C.
As to `*CC(*)c1ccccc1C(=O)OCC(C)C` (repeat unit), the glass transition temperature came to 127.00 °C.
The compound `*CC(*)c1ccccc1C(=O)OCCCC` (repeat unit) registered a glass transition temperature of 66.00 °C.
With `*CC1CCC(CNC(=O)c2cc(C(=O)N*)cc(C(C)(C)C)c2)CC1` (repeat unit), the glass transition temperature came out at 236.00 °C.
For `*NC1CC(C)(C)CC(C)(CNC(=O)c2cc(NC(=O)C(C(C)CC)N3C(=O)c4ccccc4C3=O)cc(C(*)=O)c2)C1` (repeat unit) the value was 128.00 °C; for `*Oc1ccc(Oc2ccc(OC(=O)NC(=O)c3cc(C(=O)NC(*)=O)cc(C(C)(C)C)c3)cc2)cc1` (repeat unit), 114.50 °C.

The record behind these values is the PolyMetriX glass transition set.
